From patent publication EP4678638A1, “NEW E3 UBIQUITIN LIGASE LIGAND, PROTEIN DEGRADATION AGENT AND USE THEREOF” (priority 2023, dated 2024)

Columns and labels:
EGFR = assay: Western blot degradation of EGFR (H1975 Cell); format: cell-based, Human; conditions: Table D2
Description: Conventional Western blot assay was performed to evaluate the effects of the compounds of the present disclosure on the expression of target proteins in cells.
(1) Cell Seeding and Protein Harvesting: The selected cells were processed according to the cell seeding procedure and protein harvesting procedure in Table III-2. Table III-2 Cell Seeding and Protein Harvesting Procedures
(2) To the collected supernatant, 5X SDS sample loading buffer was added, followed by denaturation at 95°C for 5 minutes. The denatured samples were then separated by SDS-PAGE electrophoresis on a polyacrylamide gel. Proteins were transferred to a nitrocellulose membrane (0.45 µm NC membrane), blocked with blocking buffer at room temperature for 1 hour, and subjected to antibody incubation and development procedures according to the antibody manufacturer's instructions (Cell Signaling Technology).
Half-Maximal Degradation Concentration value (the drug concentration required for degrading proteins by 50%, abbreviated as DC50) reads method: comparing the grayscale values of Western blot bands from drug-treated samples with those from blank DMSO-treated controls, and identifying the drug concentration range at which the grayscale value is half that of the DMSO-treated control bands.
DC50 values can be calculated using ImageJ software to measure grayscale values of Western blot bands from drug-treated samples. The concentration-response curve is fitted to estimate the drug concentration corresponding to half the grayscale value.
Target protein remaining (%) refers to the percentage of target protein remaining in hPBMC cells after treatment with protein degrader compounds.
Calculation method for target protein remaining (%): Use ImageJ software to measure grayscale values of Western blot bands from drug (protein degrader)-treated samples. The grayscale value of drug-treated bands is divided by that of internal control protein bands, and the resulting quotient is normalized to obtain the relative percentage of remaining target protein after protein degrader treatment.
Target protein degradation rate (%) = 100% - target protein remaining (%).

MCF7 = assay: CCK-8 proliferation, MCF7 (MCF-7); format: cell-based; conditions: Homo sapiens, MCF7; Table B6, compounds designed based on the ALK inhibitors; MCF-7 cells; read-out: Inhibitory activity (IC50, nM) on tumor cell proliferation, MCF-7
Description: (§1) The tumor cells used herein were cultured in a cell culture medium listed in table A1 at 37°C in an incubator with 5% CO2. Prior to experimentation, all cell lines used were correctly identified by STR profiling, and tested negative for mycoplasma contamination using a mycoplasma detection kit through routine screenings. Table A1. Tumor cells and cell culture medium used in the present disclosure
(§2) IC50 values of the compounds of the present disclosure (including the compounds in Table 1, and compounds of examples) were measured using the Meilun Cell Counting Kit-8 kit from Dalian Meilun Biotech Co., Ltd. Assay details are as follows: tumor cells were seeded in a 96-well plate at a density listed in Table A2. After 24h, 100 µL of the inoculated cells were treated with 0.5µL of the compounds of the present disclosure (including the compounds in Tables 1 and 2, and compounds of examples) at 10 different successively decreasing concentrations (starting at the highest concentration of 10µM; 5-fold serial dilutions). After the cells were treated with the compounds of the present disclosure for a period of time, the cell viability detection reagent was added to the culture medium for cell viability assessment according to the instructions provided with the CCK-8 kit. […] The growth inhibition of the compounds of the present disclosure on cells was plotted by Prism Graphpad software, and the IC50 values of the compounds of the present disclosure were calculated therefrom. […] Seeding protocol and treatment time for tumor cells

H2228 = assay: CCK-8 proliferation, NCI-H2228 (H2228); format: cell-based; conditions: Homo sapiens, NCI-H2228; Table B6, compounds designed based on the ALK inhibitors; H2228 cells; read-out: Inhibitory activity (IC50, nM) on tumor cell proliferation, H2228
Description: as §1, §2

SR = assay: CCK-8 proliferation, SR; format: cell-based, Human; conditions: Homo sapiens; Table B6, compounds designed based on the ALK inhibitors; SR cells; read-out: Inhibitory activity (IC50, nM) on tumor cell proliferation, SR
Description: as §1, §2

MM.1S = assay: CCK-8 proliferation, MM.1S; format: cell-based; conditions: Homo sapiens, MM1.S; Table B6, compounds designed based on the ALK inhibitors; MM.1S cells; read-out: Inhibitory activity (IC50, nM) on tumor cell proliferation, MM.1S
Description: as §1, §2

H1975 = assay: CCK-8 proliferation, NCI-H1975 (H1975); format: cell-based, Human; conditions: Homo sapiens, NCI-H1975; Table B6, compounds designed based on the ALK inhibitors; H1975 cells; read-out: Inhibitory activity (IC50, nM) on tumor cell proliferation, H1975
How it was run: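 Tumor cells were cultured at 37°C with 5% CO2, seeded, and after 24h treated with compounds at 10 concentrations starting at 10µM (5-fold serial dilutions).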

With COc1cc(N2CCN(Cc3ccc(C4CCC(=O)NC4=O)cc3)CC2)c(C)cc1Nc1ncc(Br)c(Nc2ccc3nccnc3c2P(C)(C)=O)n1 (stereo not shown) [GT-03913, 3-(4-((4-(4-((5-bromo-4-((5-(dimethylphosphoryl)quinoxalin-6-yl)amino)pyrimidin-2-yl)amino)-5-methoxy-2-methylphenyl)piperazin-1-yl)methyl)phenyl)piperidine-2,6-dione] the “Degradation of substrate protein EGFR (substrate protein remaining %)” value (“Degradation … (substrate protein remaining %)” for short) (EGFR) was “A (A is defined as 0% ≤ substrate protein remaining % ≤ 80%)”.
COc1cc(N2CCN(Cc3ccc(C4CCC(=O)NC4=O)c(F)c3)CC2)c(C)cc1Nc1ncc(Br)c(Nc2ccc3nccnc3c2P(C)(C)=O)n1 (stereo not shown) [GT-03914, 3-(4-((4-(4-((5-bromo-4-((5-(dimethylphosphoryl)quinoxalin-6-yl)amino)pyrimidin-2-yl)amino)-5-methoxy-2-methylphenyl)piperazin-1-yl)methyl)-2-fluorophenyl)piperidine-2,6-dione] was tested, and the “Degradation … (substrate protein remaining %)” value (EGFR) was “A (A is defined as 0% ≤ substrate protein remaining % ≤ 80%)”.
In the case of COc1cc(N2CCC(N(C)Cc3ccc(C4CCC(=O)NC4=O)c(F)c3)CC2)c(C)cc1Nc1ncc(Br)c(Nc2ccc3nccnc3c2P(C)(C)=O)n1 (stereo not shown) [GT-03931, 3-(4-(((1-(4-((5-bromo-4-((5-(dimethylphosphoryl)quinoxalin-6-yl)amino)pyrimidin-2-yl)amino)-5-methoxy-2-methylphenyl)piperidin-4-yl)(methyl)amino)methyl)-2-fluorophenyl)piperidine-2,6-dione], the “Degradation … (substrate protein remaining %)” value (EGFR) is reported as “A (A is defined as 0% ≤ substrate protein remaining % ≤ 80%)”.
In the case of O=C1CCN(c2ccc(CN3C[C@@H]4C[C@H]3CN4c3ccc(-c4cc(F)c5c(c4)C(=O)N(C(C(=O)Nc4nccs4)c4ncn6c4CCC6)C5)cc3)cn2)C(=O)N1 (stereo partly drawn) [GT-05120, 2-(6,7-dihydro-5H-pyrrolo[1,2-c]imidazol-1-yl)-2-(6-(4-((1S,4S)-5-((6-(2,4-dioxotetrahydropyrimidin-1(2H)-yl)pyridin-3-yl)methyl)-2,5-diazabicyclo[2.2.1]heptan-2-yl)phenyl)-4-fluoro-1-oxoisoindolin-2-yl)-N-(thiazol-2-yl)acetamide], the “Degradation … (substrate protein remaining %)” value (EGFR) is reported as “A (A is defined as 0% ≤ substrate protein remaining % ≤ 80%)”.
CC(C)n1nc(N2CCN(Cc3ccc(N4CCC(=O)NC4=O)cn3)CC2)c2cnc(Nc3ccnc(-c4cnn(S(=O)(=O)C5CC5)c4)n3)cc21 [GT-06014, 1-(6-((4-(6-((2-(1-(cyclopropylsulfonyl)-1H-pyrazol-4-yl)pyrimidin-4-yl)amino)-1-isopropyl-1H-pyrazolo[4,3-c]pyridin-3-yl)piperazin-1-yl)methyl)pyridin-3-yl)dihydropyrimidine-2,4(1H,3H)-dione] was tested, and the “Degradation … (substrate protein remaining %)” value (EGFR) was “A (A is defined as 0% ≤ substrate protein remaining % ≤ 80%)”.
CC(C)n1nc(N2CCN(Cc3ccc(N4CCC(=O)NC4=O)nc3)CC2)c2cnc(Nc3ccnc(-c4cnn(S(=O)(=O)C5CC5)c4)n3)cc21 [GT-06015, 1-(5-((4-(6-((2-(1-(cyclopropylsulfonyl)-1H-pyrazol-4-yl)pyrimidin-4-yl)amino)-1-isopropyl-1H-pyrazolo[4,3-c]pyridin-3-yl)piperazin-1-yl)methyl)pyridin-2-yl)dihydropyrimidine-2,4(1H,3H)-dione] was tested, and the “Degradation … (substrate protein remaining %)” value (EGFR) was “A (A is defined as 0% ≤ substrate protein remaining % ≤ 80%)”.
For CC(C)n1nc(N2CCN(Cc3cccc(NC4CCC(=O)NC4=O)c3)CC2)c2cnc(Nc3ccnc(-c4cnn(S(=O)(=O)C5CC5)c4)n3)cc21 (stereo not shown) [GT-06016, 3-((3-((4-(6-((2-(1-(cyclopropylsulfonyl)-1H-pyrazol-4-yl)pyrimidin-4-yl)amino)-1-isopropyl-1H-pyrazolo[4,3-c]pyridin-3-yl)piperazin-1-yl)methyl)phenyl)amino)pip eridine-2,6-dione], the “Degradation … (substrate protein remaining %)” value (EGFR) was “A (A is defined as 0% ≤ substrate protein remaining % ≤ 80%)”.
For CCn1nc(N2CCC(N(C)Cc3ccc(N4CCC(=O)NC4=O)nc3)CC2)c2cnc(Nc3ccnc(-c4cnn(S(=O)(=O)C5CC5)c4)n3)cc21 [GT-06022, 1-(5-(((1-(6-((2-(1-(cyclopropylsulfonyl)-1H-pyrazol-4-yl)pyrimidin-4-yl)amino)-1-ethyl-1H-pyrazolo[4,3-c]pyridin-3-yl)piperidin-4-yl)(methyl)amino)methyl)pyridin-2-yl)dihydropyrimidine-2,4(1H,3H)-dione], the “Degradation … (substrate protein remaining %)” value (EGFR) was “A (A is defined as 0% ≤ substrate protein remaining % ≤ 80%)”.
With COC1CCN(c2nccc(Nc3cc4c(cn3)c(N3CCN(Cc5cccc(N6CCC(=O)NC6=O)c5)CC3)nn4C(C)C)n2)CC1 [GT-06038, 1-(3-((4-(1-isopropyl-6-((2-(4-methoxypiperidin-1-yl)pyrimidin-4-yl)amino)-1H-pyrazolo[4,3-c]pyridin-3-yl)piperazin-1-yl)methyl)phenyl)dihydropyr imidine-2,4(1H,3H)-dione] the “Degradation … (substrate protein remaining %)” value (EGFR) was “A (A is defined as 0% ≤ substrate protein remaining % ≤ 80%)”.
CCc1cc2c(cc1N1CCC(N3CCN(Cc4ccc(N5CCC(=O)NC5=O)cn4)CC3)CC1)C(C)(C)c1[nH]c3cc(C#N)ccc3c1C2=O [GT-07311, 8-(4-(4-((5-(2,4-dioxotetrahydropyrimidin-1(2H)-yl)pyridin-2-yl)methyl)piperazin-1-yl)piperidin-1-yl)-9-ethyl-6,6-dimethyl-11-oxo-6,11-dihydro-5H-benzo[b]carbazole-3-carbonitrile] gave an IC50 (MCF7) of 500 to 1000 nM, an IC50 (H2228) of 50 to 100 nM and an IC50 (SR) of 1 to 10 nM. The IC50 (MM.1S) was 500 to 1000 nM and the IC50 (H1975) was 500 to 1000 nM.
With Cc1cc(Nc2ncc(Cl)c(Nc3ccccc3S(=O)(=O)C(C)C)n2)c(OC(C)C)cc1C1CCN(Cc2cncc(C3CCC(=O)NC3=O)c2)CC1 (stereo not shown) [GT-07601, 3-(5-((4-(4-((5-chloro-4-((2-(isopropylsulfonyl)phenyl)amino)pyrimidin-2-yl)amino)-5-isopropoxy-2-methylphenyl)piperidin-1-yl)methyl)pyridin-3-yl)piperidine-2,6-dione] the IC50 (MCF7) was 100 to 500 nM, the IC50 (H2228) was 10 to 50 nM and the IC50 (SR) was 10 to 50 nM. The IC50 (MM.1S) was 500 to 1000 nM.
Compound COc1cc(N2CCC(N3CCN(Cc4ccc(N5CCC(=O)NC5=O)cc4)CC3)CC2)ccc1Nc1ncc(Cl)c(Nc2ccccc2P(C)(C)=O)n1 [GT-07603, 1-(4-((4-(1-(4-((5-chloro-4-((2-(dimethylphosphoryl)phenyl)amino)pyrimidin-2-yl)amino)-3-methoxyphenyl)piperidin-4-yl)piperazin-1-yl)methyl)phenyl)dihydropyr imidine-2,4(1H,3H)-dione] has an IC50 (MCF7) of 100 to 500 nM, an IC50 (H2228) of 10 to 50 nM and an IC50 (SR) of 10 to 50 nM. It also gave an IC50 (MM.1S) of 500 to 1000 nM and an IC50 (H1975) of 100 to 500 nM.
CCc1cc2c(cc1N1CCC(N3CCN(Cc4cncc(C5CCC(=O)NC5=O)c4)CC3)CC1)C(C)(C)c1[nH]c3cc(C#N)ccc3c1C2=O (stereo not shown) [GT-07706, 8-(4-(4-((5-(2,6-dioxopiperidin-3-yl)pyridin-3-yl)methyl)piperazin-1-yl)piperidin-1-yl)-9-ethyl-6,6-dimethyl-11-oxo-6,11-dihydro-5H-benzo[b]carbazole-3-carbonitrile] gave an IC50 (MCF7) of 500 to 1000 nM, an IC50 (H2228) of 50 to 100 nM and an IC50 (SR) of 1 to 10 nM. The IC50 (MM.1S) was 500 to 1000 nM and the IC50 (H1975) was 500 to 1000 nM.
